One data set relates to HCT-116. Kind of data set: Anti-cancer activity against human HCT-116 assessed as cell viability incubated for 48 hrs by CCK-8 assay. Format: functional, cell-based. The settings on record: HCT-116, 48 h.
The next data set deals with U-87 MG. Kind of data set: Anti-cancer activity against human U-87 MG assessed as cell viability incubated for 48 hrs by CCK-8 assay. Format: functional, cell-based, U-87MG ATCC.
The subject of data set [1] is MCF7. Kind of data set: Anti-cancer activity against human MCF7 assessed as cell viability incubated for 48 hrs by CCK-8 assay. Format: functional, cell-based. Conditions: MCF7, 48 h.
Data set [2] has as its system MCF7. Kind of data set: Inhibition of cell migration in human MCF7 cells at 5 uM incubated for 36 hrs by crystal violet staining based microscopy analysis. Format: functional.
Data set [3] deals with MCF7. Kind of data set: Induction of apoptosis in human MCF7 cells assessed as late apoptotic cells at 5 uM incubated for 24 hrs by Annexin V-FITC/PI staining based flow cytometry analysis (reference value: 3.54%). Format: functional.
Data set [4] concerns MCF7. In words: Induction of apoptosis in human MCF7 cells assessed as early apoptotic cells at 5 uM incubated for 24 hrs by Annexin V-FITC/PI staining based flow cytometry analysis (reference value: 1.01%). It is filed as functional.
Data set [5] concerns MCF7. In words: Induction of cell death in human MCF7 cells assessed as reduction in number of viable cells at 10 uM incubated for 24 hrs by calcein-AM/PI staining based analysis. Format: functional.
In data set [6] the test system is MCF7. Kind of data set: Inhibition of cell migration in human MCF7 cells at 5 uM incubated for 24 hrs by scratch wound healing assay. Format: functional, cell-based.
Data set [7] deals with MCF7. In words: Induction of apoptosis in human MCF7 cells assessed as necrotic cells at 5 uM incubated for 24 hrs by Annexin V-FITC/PI staining based flow cytometry analysis (reference value: 1.94%). Format: functional.
The subject of data set [8] is MCF7. In words: Induction of apoptosis in human MCF7 cells assessed as viable cells at 5 uM incubated for 24 hrs by Annexin V-FITC/PI staining based flow cytometry analysis (reference value: 93.51%). It is filed as functional. The settings on record: read-out: Activity.
Data set [9] is described as follows: Stability of a compound in human serum assessed as half life at 91 mg/mL incubated for 0 to 144 hrs by HPLC-UV analysis. Format: ADME, cell-free. The settings on record: time 0-144 hrs.

Calls of active or inactive are those of the source. No cut-off for these calls is given here. *1 amine or outer side, *2 acyl side, *3 side chain or, on linkers, in order; H or OH if unused. Where a SMILES comes first, the peptide text is derived from it. Bridges are numbered along the chain shown (N, C = ends). Biphenyl(4,4'-CH2)2 = c1cc(-c2ccc(C[*:2])cc2)ccc1C[*:1]; mXylylene = c1cc(C[*:1])cc(C[*:2])c1; oXylylene = c1ccc(C[*:2])c(C[*:1])c1; pXylylene = c1cc(C[*:2])ccc1C[*:1]

Take `CC[C@H](C)[C@H](NC(=O)[C@@H](NC(=O)[C@H](CO)NC(=O)[C@H](C)NC(=O)[C@@H](NC(=O)[C@H](CCCCN)NC(=O)[C@H](CCCCN)NC(=O)[C@@H]1CSCc2cccc(c2)CSC[C@H](NC(=O)CNC(C)=O)C(=O)N[C@@H](Cc2ccccc2)C(=O)N[C@@H](C)C(=O)N[C@@H](C(C)C)C(=O)N1)C(C)C)C(C)C)C(=O)N[C@@H](CCCCN)C(=O)NCC(=O)N[C@@H](CC(C)C)C(N)=O` (Ac-GCFAVCKKVASVIKGL-NH2; linker 2-6 via mXylylene): the figures for the IC50 in the data set with HCT-116, with U-87 MG and in the data set with MCF7 [1] were 106 µM, 57.8 µM and 54.7 µM, respectively.

Take `CC[C@H](C)[C@H](NC(=O)[C@@H](NC(=O)[C@H](CO)NC(=O)[C@H](C)NC(=O)[C@@H](NC(=O)[C@H](CCCCN)NC(=O)[C@H](CCCCN)NC(=O)[C@@H]1CSCc2ccccc2CSC[C@H](NC(=O)CNC(C)=O)C(=O)N[C@@H](Cc2ccccc2)C(=O)N[C@@H](C)C(=O)N[C@@H](C(C)C)C(=O)N1)C(C)C)C(C)C)C(=O)N[C@@H](CCCCN)C(=O)NCC(=O)N[C@@H](CC(C)C)C(N)=O` (Ac-GCFAVCKKVASVIKGL-NH2; linker 2-6 via oXylylene): the IC50 was determined as 13.9 µM in the data set on HCT-116, 11.4 µM in the data set with U-87 MG and 12.5 µM with MCF7 [1].

For the compound `CC[C@H](C)[C@H](NC(=O)[C@@H](NC(=O)[C@H](CO)NC(=O)[C@H](C)NC(=O)[C@@H](NC(=O)[C@H](CCCCN)NC(=O)[C@H](CCCCN)NC(=O)[C@@H]1CSCc2ccc(cc2)CSC[C@H](NC(=O)CNC(C)=O)C(=O)N[C@@H](Cc2ccccc2)C(=O)N[C@@H](C)C(=O)N[C@@H](C(C)C)C(=O)N1)C(C)C)C(C)C)C(=O)N[C@@H](CCCCN)C(=O)NCC(=O)N[C@@H](CC(C)C)C(N)=O` (Ac-GCFAVCKKVASVIKGL-NH2; linker 2-6 via pXylylene), the IC50 was 230 µM in the data set on HCT-116, 53 µM with U-87 MG and 54.1 µM in the data set on MCF7 [1].

For the compound `CC[C@H](C)[C@@H]1NC(=O)[C@@H](NC(=O)[C@H](C)NC(=O)[C@H](Cc2ccccc2)NC(=O)[C@H](CC(C)C)NC(=O)CNC(C)=O)CSCc2cccc(c2)CSC[C@@H](C(=O)N[C@@H](C)C(=O)N[C@@H](CO)C(=O)N[C@H](C(=O)N[C@H](C(=O)N[C@@H](CCCCN)C(=O)NCC(=O)N[C@@H](CC(C)C)C(N)=O)[C@@H](C)CC)C(C)C)NC(=O)[C@H](CCCCN)NC(=O)[C@H](CCCCN)NC1=O` (Ac-GLFACIKKCASVIKGL-NH2; linker 5-9 via mXylylene), the IC50 was 8.23 µM in the data set on HCT-116, 11.8 µM in the data set with U-87 MG and 9.25 µM in the data set on MCF7 [1].

As for `CC[C@H](C)[C@@H]1NC(=O)[C@@H](NC(=O)[C@H](C)NC(=O)[C@H](Cc2ccccc2)NC(=O)[C@H](CC(C)C)NC(=O)CNC(C)=O)CSCc2ccccc2CSC[C@@H](C(=O)N[C@@H](C)C(=O)N[C@@H](CO)C(=O)N[C@H](C(=O)N[C@H](C(=O)N[C@@H](CCCCN)C(=O)NCC(=O)N[C@@H](CC(C)C)C(N)=O)[C@@H](C)CC)C(C)C)NC(=O)[C@H](CCCCN)NC(=O)[C@H](CCCCN)NC1=O` (Ac-GLFACIKKCASVIKGL-NH2; linker 5-9 via oXylylene), the figures for the IC50 in the data set on HCT-116, with U-87 MG and in the data set with MCF7 [1] were 5.04 µM, 2.8 µM and 2.75 µM, respectively. Moreover, the result with MCF7 [2], in the data set with MCF7 [5] and in the data set on MCF7 [6] was Active. Also, the results for the Activity in the data set on MCF7 [3], in the data set with MCF7 [4] and with MCF7 [7] were 75.52%, 22.39% and 1.35%, respectively. Moreover, the viability at 5 µM in the data set on MCF7 [8] was 1.1%. For the same compound, the half-life at 91 mg/mL in data set [9] is 143 h.

Take `CC[C@H](C)[C@@H]1NC(=O)[C@@H](NC(=O)[C@H](C)NC(=O)[C@H](Cc2ccccc2)NC(=O)[C@H](CC(C)C)NC(=O)CNC(C)=O)CSCc2ccc(cc2)CSC[C@@H](C(=O)N[C@@H](C)C(=O)N[C@@H](CO)C(=O)N[C@H](C(=O)N[C@H](C(=O)N[C@@H](CCCCN)C(=O)NCC(=O)N[C@@H](CC(C)C)C(N)=O)[C@@H](C)CC)C(C)C)NC(=O)[C@H](CCCCN)NC(=O)[C@H](CCCCN)NC1=O` (Ac-GLFACIKKCASVIKGL-NH2; linker 5-9 via pXylylene): the IC50 stood at 12.9 µM in the data set on HCT-116, 12.8 µM in the data set with U-87 MG and 11.8 µM with MCF7 [1].

As to `CC(=O)NCC(=O)N[C@@H](CC(C)C)C(=O)N[C@@H](Cc1ccccc1)C(=O)N[C@@H](C)C(=O)N[C@H](C(=O)N[C@H]1CSCc2ccc(cc2)-c2ccc(cc2)CSC[C@@H](C(=O)N[C@@H](CCCCN)C(=O)NCC(=O)N[C@@H](CC(C)C)C(N)=O)NC(=O)[C@H](C(C)C)NC(=O)[C@H](CO)NC(=O)[C@H](C)NC(=O)[C@H](C(C)C)NC(=O)[C@H](CCCCN)NC(=O)[C@H](CCCCN)NC1=O)C(C)C` (Ac-GLFAVCKKVASVCKGL-NH2; linker 6-13 via Biphenyl(4,4'-CH2)2), the IC50 in the data set with HCT-116 worked out at 7.44 µM; in the data set on U-87 MG, 9.2 µM; in the data set on MCF7 [1], 7.47 µM.

Take `CC[C@H](C)[C@H](NC(=O)[C@@H](NC(=O)[C@H](CO)NC(=O)[C@@H]1CSCc2cccc(c2)CSC[C@H](NC(=O)[C@@H](NC(=O)[C@H](C)NC(=O)[C@H](Cc2ccccc2)NC(=O)[C@H](CC(C)C)NC(=O)CNC(C)=O)C(C)C)C(=O)N[C@@H](CCCCN)C(=O)N[C@@H](CCCCN)C(=O)N[C@@H](C(C)C)C(=O)N1)C(C)C)C(=O)N[C@@H](CCCCN)C(=O)NCC(=O)N[C@@H](CC(C)C)C(N)=O` (Ac-GLFAVCKKVCSVIKGL-NH2; linker 6-10 via mXylylene): the concentration for half-maximal inhibition (IC50) in the data set on HCT-116 worked out at 10.6 µM; in the data set with U-87 MG, 14.3 µM; in the data set on MCF7 [1], 13.6 µM.

`CC[C@H](C)[C@H](NC(=O)[C@@H](NC(=O)[C@H](CO)NC(=O)[C@@H]1CSCc2ccccc2CSC[C@H](NC(=O)[C@@H](NC(=O)[C@H](C)NC(=O)[C@H](Cc2ccccc2)NC(=O)[C@H](CC(C)C)NC(=O)CNC(C)=O)C(C)C)C(=O)N[C@@H](CCCCN)C(=O)N[C@@H](CCCCN)C(=O)N[C@@H](C(C)C)C(=O)N1)C(C)C)C(=O)N[C@@H](CCCCN)C(=O)NCC(=O)N[C@@H](CC(C)C)C(N)=O` (Ac-GLFAVCKKVCSVIKGL-NH2; linker 6-10 via oXylylene): the IC50 with HCT-116 came out at 5.86 µM; with U-87 MG it was 6.27 µM; in the data set on MCF7 [1], 6.58 µM. The outcome in the data set with MCF7 [2], in the data set with MCF7 [5] and with MCF7 [6] was Active. For the same compound, the Activity in the data set with MCF7 [3] is 37.02%; in the data set on MCF7 [4] it was 15.92%; in the data set on MCF7 [7], 3.9%. The viability at 5 µM in the data set with MCF7 [8] came to 43.2%. Also, in data set [9], the half-life at 91 mg/mL was 143 h.

For the compound `CC[C@H](C)[C@H](NC(=O)[C@@H](NC(=O)[C@H](CO)NC(=O)[C@@H]1CSCc2ccc(cc2)CSC[C@H](NC(=O)[C@@H](NC(=O)[C@H](C)NC(=O)[C@H](Cc2ccccc2)NC(=O)[C@H](CC(C)C)NC(=O)CNC(C)=O)C(C)C)C(=O)N[C@@H](CCCCN)C(=O)N[C@@H](CCCCN)C(=O)N[C@@H](C(C)C)C(=O)N1)C(C)C)C(=O)N[C@@H](CCCCN)C(=O)NCC(=O)N[C@@H](CC(C)C)C(N)=O` (Ac-GLFAVCKKVCSVIKGL-NH2; linker 6-10 via pXylylene), the IC50 with HCT-116 worked out at 13.4 µM; in the data set on U-87 MG it was 15.6 µM; in the data set with MCF7 [1], 15.7 µM.

As for `CC[C@H](C)[C@H](NC(=O)[C@@H](NC(=O)[C@H](C)NC(=O)[C@H](Cc1ccccc1)NC(=O)[C@H](CC(C)C)NC(=O)CNC(C)=O)C(C)C)C(=O)N[C@@H](CCCCN)C(=O)N[C@@H](CCCCN)C(=O)N[C@H]1CSCc2cccc(c2)CSC[C@@H](C(=O)N[C@@H](CCCCN)C(=O)NCC(=O)N[C@@H](CC(C)C)C(N)=O)NC(=O)[C@H](C(C)C)NC(=O)[C@H](CO)NC(=O)[C@H](C)NC1=O` (Ac-GLFAVIKKCASVCKGL-NH2; linker 9-13 via mXylylene), the IC50 with HCT-116 was determined as 11 µM; in the data set on U-87 MG, 10.7 µM; in the data set on MCF7 [1], 8.34 µM.

Turning to `CC[C@H](C)[C@H](NC(=O)[C@@H](NC(=O)[C@H](C)NC(=O)[C@H](Cc1ccccc1)NC(=O)[C@H](CC(C)C)NC(=O)CNC(C)=O)C(C)C)C(=O)N[C@@H](CCCCN)C(=O)N[C@@H](CCCCN)C(=O)N[C@H]1CSCc2ccccc2CSC[C@@H](C(=O)N[C@@H](CCCCN)C(=O)NCC(=O)N[C@@H](CC(C)C)C(N)=O)NC(=O)[C@H](C(C)C)NC(=O)[C@H](CO)NC(=O)[C@H](C)NC1=O` (Ac-GLFAVIKKCASVCKGL-NH2; linker 9-13 via oXylylene), the IC50 in the data set on HCT-116 came out at 7.94 µM; in the data set on U-87 MG, 8.42 µM; in the data set with MCF7 [1] it was 8.68 µM.

Take `CC[C@H](C)[C@H](NC(=O)[C@@H](NC(=O)[C@H](C)NC(=O)[C@H](Cc1ccccc1)NC(=O)[C@H](CC(C)C)NC(=O)CNC(C)=O)C(C)C)C(=O)N[C@@H](CCCCN)C(=O)N[C@@H](CCCCN)C(=O)N[C@H]1CSCc2ccc(cc2)CSC[C@@H](C(=O)N[C@@H](CCCCN)C(=O)NCC(=O)N[C@@H](CC(C)C)C(N)=O)NC(=O)[C@H](C(C)C)NC(=O)[C@H](CO)NC(=O)[C@H](C)NC1=O` (Ac-GLFAVIKKCASVCKGL-NH2; linker 9-13 via pXylylene): the IC50 was determined as 114 µM in the data set with HCT-116, 25.9 µM in the data set on U-87 MG and 32.1 µM in the data set on MCF7 [1].

Values taken from ChEMBL document CHEMBL5390219, “Benzyl stapled modification and anticancer activity of antimicrobial peptide A4K14-Citropin 1.1” (Bioorg Med Chem Lett, 2023).
